Key:
[1] = molecular target: mushroom tyrosinase (EC 1.14.18.1) (Agaricus bisporus, UniProt C7FF04); experiment: Assay of tyrosinase; type: biochemical
[2] = molecular target: α-Glucosidase (EC 3.2.1.20); experiment: Assay of α-glucosidase; type: biochemical; details: read-out: Inhibition (IC50) α-Glucosidase; isolated compounds; pNPG substrate, pH 6.8, 37°C; mean±SD of triplicate

Chain of mushroom tyrosinase (EC 1.14.18.1) (C7FF04 1-392 limits assumed): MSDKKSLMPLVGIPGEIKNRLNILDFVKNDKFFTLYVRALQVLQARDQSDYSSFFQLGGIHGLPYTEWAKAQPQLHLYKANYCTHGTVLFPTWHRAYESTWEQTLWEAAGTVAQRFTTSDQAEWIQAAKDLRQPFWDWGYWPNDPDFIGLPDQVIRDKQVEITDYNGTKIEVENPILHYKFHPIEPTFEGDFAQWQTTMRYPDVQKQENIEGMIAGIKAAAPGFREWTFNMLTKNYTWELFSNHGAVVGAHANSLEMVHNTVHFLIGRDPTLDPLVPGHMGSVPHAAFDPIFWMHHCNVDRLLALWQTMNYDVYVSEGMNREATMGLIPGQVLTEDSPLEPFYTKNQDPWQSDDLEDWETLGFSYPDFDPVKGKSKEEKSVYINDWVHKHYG

Row | SMILES | IC50 [1] | IC50 [2]
1 | Oc1cc(O)cc(/C=C/c2ccc(O)cc2O)c1 [ORT, oxyresveratrol] | 0.57 ± 0.04 µM | 273 ± 13.2 µM
2 | CC(C)=CCc1cc2cc(-c3cc(O)cc(O)c3)oc2cc1O [MCN, moracin N] | 10.16 ± 0.03 µM | 59.4 ± 2 µM
3 | CC(C)=CCc1c(O)ccc(C(=O)[C@H]2[C@@H](c3c(O)cc(-c4cc5ccc(O)cc5o4)cc3O)C=C(C)C[C@@H]2c2ccc(O)cc2O)c1O [CMC, chalcomoracin] | 5.61 ± 0.2 µM | 6 ± 0.46 µM

Continued by falling IC50 [1], values first:

Row | IC50 [1] | IC50 [2] | SMILES
4 | 37.9 ± 0.42 µM | 88.8 ± 1.32 µM | CC(C)=CCc1c(O)cc(-c2cc3ccc(O)cc3o2)cc1O [MCC, moracin C]
5 | 17.2 ± 0.37 µM | 168 ± 2.44 µM | Oc1cc(O)cc(-c2cc3ccc(O)cc3o2)c1 [MCM, moracin M]

Source: publication PMC6456241 (Preventive Nutrition and Food Science, 2018)
